Measured values taken from BindingDB's records for patent US10301272 (Phenex Pharmaceuticals, 2019).

target: T1, Isoform 2 of Nuclear receptor ROR-gamma (RORgT) (Homo sapiens, UniProt P51449); test: RORgamma Gal4 Reporter Gene Assay (FRET)
T1 sequence (P51449 whole entry): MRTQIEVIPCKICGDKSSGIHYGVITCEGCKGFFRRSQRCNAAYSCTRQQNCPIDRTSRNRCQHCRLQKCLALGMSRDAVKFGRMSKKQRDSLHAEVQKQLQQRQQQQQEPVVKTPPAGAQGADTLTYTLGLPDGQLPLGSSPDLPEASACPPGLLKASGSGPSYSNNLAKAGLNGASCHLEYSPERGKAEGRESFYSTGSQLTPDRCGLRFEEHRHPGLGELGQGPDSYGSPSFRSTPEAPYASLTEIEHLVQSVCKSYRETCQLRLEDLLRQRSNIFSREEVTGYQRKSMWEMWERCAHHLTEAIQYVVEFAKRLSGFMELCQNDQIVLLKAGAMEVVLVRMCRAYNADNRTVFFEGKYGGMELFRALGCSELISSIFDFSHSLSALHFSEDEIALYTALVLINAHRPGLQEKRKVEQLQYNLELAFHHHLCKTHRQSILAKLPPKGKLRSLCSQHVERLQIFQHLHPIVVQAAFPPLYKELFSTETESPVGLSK
Method: Determination of a ligand mediated Gal4 promoter driven transactivation to quantify ligand binding to RORγ was performed as follows: DNA encoding three different RORγ protein fragments was cloned into vector pCMV-BD (Stratagene). Expression was under control of a CMV promoter and as fusion to the DNA-binding domain of the yeast protein GAL4. Other vectors used were pFR-Luc (Stratagene) as regulated reporter plasmid. pFR-Luc contains a synthetic promoter with five tandem repeats of the yeast GAL4 binding sites that control expression of the Photinus pyralis (American firefly) luciferase gene. In order to improve experimental accuracy the plasmid pRL-CMV was cotransfected. pRL-CMV contains the constitutive CMV promoter, controlling the expression of the Renilla reniformis luciferase. […] The medium is supplemented with 10% fetal bovine serum, 0.1 mM nonessential amino acids, 1 mM sodium pyruvate, 1% Glutamax and 100 units Penicilin/[…] per mL at 37° C. in 5% CO2.For the assay, […] cells were plated per well in 96 well plates in 100 μL per well, incubated over night at 37° C. in 5% CO2. […] About 4 h after addition of the transfection solution, fresh Minimal Essential Medium (MEM, same composition as used for plating cells, but without serum) was added.

First: CC(C)(C)NS(=O)(=O)c1ccc(-c2sc(C(=O)NC3CCOCC3)nc2CC2CCCCC2)cc1C(F)(F)F [US10301272, Example 9]
Second: CC(C)(O)CNC(=O)c1nc(CC2CCC2)c(-c2ccc(S(=O)(=O)NC(C)(C)C)c(Cl)c2OC(F)F)s1 [US10301272, Example 21/1]
The IC50 of the first is 4-fold lower: 63.1 nM for the first, 251 nM for the second.

Compound CCOC(=O)c1nc(Cc2ccccc2)c(-c2ccc(S(=O)(=O)NC(C)(C)C)c3ccccc23)s1 [US10301272, Example 202] has an IC50 of 63.1 nM.
